Results: paper PMC5974752, “Bax/Tubulin/Epithelial-Mesenchymal Pathways Determine the Efficacy of Silybin Analog HM015k in Colorectal Cancer Cell Growth and Metastasis” (Frontiers in Pharmacology, 2018)

How the values were obtained:
[1] = system: CRC cell lines (HCT116, LOVO, and S1); test: MTT assay, CRC cell lines together; assay type: cell-based, human; conditions: MTT
Experimental: (§1) The 3-(4,5-dimethylthiazol-2-yl)-2,5-diphenyltetrazolium bromide (MTT) assay was used to determine the sensitivity of the different CRC cells to the novel silybin derivatives (Hussein et al., [2017]; Manivannan et al., [2017]). The cells were seeded at a density of 4,000–5,000 cells/well in 96 well plates and incubated with serial dilutions of the compounds (0, 0.1, 0.3, 1, 3, 10, 30, and 100 μM). The MTT dye (4 mg/ml) was added after 72 h of incubation and incubated with the cells for an additional 4 h at 37°C. Following incubation, the media was discarded and the formazan crystals were dissolved by adding 100 μL of DMSO to each well. A DTX 880 multimode detector (Beckman Coulter Life, Indianapolis IN, USA) was used to determine the absorbance readings at a wavelength of 570 nm. The IC50 values were determined based on 3 separate experiments, with each experiment done in triplicate. The selectivity of the compounds was determined by comparing their cytotoxicity for CRC to normal epithelial cell lines (CHO, and CRL1459).

LOVO cells = test: Wound healing assay; assay type: cell-based, human; conditions: 2 and 4 μM, 24 h and 48 h, vs vehicle
Experimental: In brief, the metastatic CRC cells (LOVO) were seeded in 6 well plates and allowed to grow as a monolayer until they reached 100% confluence. Upon confluence, 200 μl sterile tips were used to create a wound by gentle scratching of the complete cell monolayer. Sterile PBS was used to wash the cells several times to remove any floating cells. Different concentrations of the test compound were prepared in the culture media and added immediately after wound formation. The closure of the wound was observed by taking pictures at different time points by an EVOS microscope. Finally, the area of the wounds at different time points was calculated using Image J software (NIH, Bethesda, Maryland, USA).

HCT116 cells [2] = test: IncuCyte Cytotox green real time cell death; assay type: cell-based, human
Experimental: For real time quantification of cell death, the Incucyte Cytotox green reagent was used. […] The plasma membrane integrity is decreased in unhealthy cells, allowing entry of the IncuCyte Cytotox reagent, yielding a 100- to 1,000-fold increase in fluorescence upon binding to deoxyribonucleic acid (DNA) (at an excitation maximum of 491 nm and an emission maximum of 509 nm). The HCT116 cells were seeded at a density of 1,000 cell/well and allowed to grow overnight. […] The cells were then incubated in a IncuCyte Zoom live cell imaging apparatus and pictures were taken every 2 h for up to 50 h.The IncuCyte® integrated analysis software was used to quantify the fluorescent objects and minimize the background fluorescence (IncuCyte ZOOM version 2016A, Essen BioScience, Ann Arbor, MI 48108, USA).

COLO 205 cell line = test: Transwell migration assay; assay type: cell-based; conditions: 2 and 4 μM, data not shown
Experimental: The effect of compound 15k on the invasiveness of LOVO was tested using 24 trans-well inserts with an […]. The addition of the insert to the well forms two chambers (upper and lower), where the upper chamber was used to grow the cells on the porous membrane. The lower chamber was filled with 600 μl of cell-free DMEM medium. A 200 μl of cell suspension was added to each insert and allowed to attach for 1 h. The test compound was added in different concentrations and incubated with the cells for 24 h. […] Finally, the remaining migrated cells were fixed by methanol and dyed with 0.1% crystal violet dye and observed with an EVOS microscope. The number of migrated cells was counted and compared between the treated and control cells.
The development of cancer metastasis is dependent on the migration and invasive properties of cancerous cells (van Zijl et al., [2011]). The wound healing and transwell migration assays were used with LOVO cells, as a model for metastatic CRC as it is characterized by a high level of invasiveness (Fan et al., [2015]). The wound healing assay is a well-established method to detect and analyze cell migration potential (Liang et al., [2007]). […] The effect of compound 15k on the invasiveness of COLO 205 cell line was also measured using trans-well migration assay. […] 15j also reversed cell migration and metastasis at different concentrations.

CRL-1459 = test: MTT assay, normal cell line; assay type: cell-based; conditions: 72 h incubation, mean ± SD of three experiments
Experimental: as §1

caspases 3 and 7 = test: IncuCyte caspase-3/7 real time apoptosis; assay type: cell-based, human
Experimental: For real time quantification of apoptosis induction, the fluorescent Caspase 3/7 and Annexin V red reagents, with an excitation maximum of 500 and 593 nm and an emission maximum of 530 and 614 nm, respectively, were used. The HCT116 cells were seeded at a density of 1,000 cell/well and allowed to grow overnight. The next day, compound 15k at 0, 2, 4, and 8μM was prepared and added, directly followed by the caspase 3/7 reagent at final concentration of 5μM or annexin V red reagent in final dilution of 1: 200. The cells were then incubated in IncuCyte Zoom live cell imaging and pictures were taken every 2 h for up to 50 h and analyzed using the integrated software. The IncuCyte® Caspase-3/7 apoptosis assay reagent couples the activated caspase-3/7 recognition motif (DEVD) to NucView™ 488, a DNA intercalating dye to enable quantification of apoptosis over time. Caspase-3/7 assay reagent is non-perturbing to cell growth and morphology. When added to cell culture medium, this inert, non-fluorescent substrate crosses the cell membrane, where it is cleaved by activated caspase-3/7, resulting in the release of the DNA dye and green fluorescent staining of nuclear DNA.

HCT116 cells [3] = test: CellTiter-Glo luminescent assay (ATP content); assay type: cell-based; conditions: Homo sapiens, HCT-116, data not shown, read-out: IC50, ATP depletion
Experimental: Subsequently, we conducted experiments to determine if compound 15k produced a time-dependent effect on cell death. […] The HCT116 cells had intense fluorescence over time compared to the cells incubated with vehicle, with a significant difference in the number of dead cells after 24 h of incubation with 2 μM of 15k. […] The cytotoxicity of 15k and 15j in HCT116 cells were further determined using a more homogeneous CellTiter-Glo® luminescent cell based assay that measures the ATP content in the metabolically active cells.

LOVO = test: MTT assay; assay type: cell-based; conditions: Homo sapiens, 72 h incubation, mean ± SD of three experiments, read-out: IC50 ± SD, Colon LOVO
Experimental: as §1

S1 = test: MTT assay; assay type: cell-based; conditions: Homo sapiens, 72 h incubation, mean ± SD of three experiments, read-out: IC50 ± SD, Colon S1
Experimental: as §1

IC50 ([1]; Homo sapiens, range over HCT116, S1 and LOVO, read-out: IC50 in the CRC cells): 1000 to 2000 nM
IC50 (HCT116 cells [3]): 760 nM
IC50 (LOVO): 2300 ± 200 nM
Compound: O=C(/C=C/c1cccc(OCc2ccccc2)c1)c1ccc(O)cc1 [Compound 15k]
selectivity, CRC cells compared to normal cells ([1]; vs CRL1459 and CHO): selectively cytotoxic
cell migration, wound closure (LOVO cells): migrated significantly slower
time of significant difference in the number of dead cells (HCT116 cells [2]; 2 μM, vs vehicle): 24 h
time of significant increase in cell death (HCT116 cells [2]; 4 and 8 μM, vs control cells): 12 h
trans-well migration (COLO 205 cell line): significantly inhibited the migration
IC50 (CRL-1459): 8500 ± 700 nM
incubation time to induce apoptosis (caspase 3/7) (caspases 3 and 7; 2 μM): ≈ 24 h
incubation time to induce apoptosis (caspase 3/7) (caspases 3 and 7; 4 and 8 μM): ≈ 10 h
IC50 (S1): 1900 ± 900 nM
